pIC50: −log10 of the molar value.
Tests used:
SK-BR-3 cells = test: Determination of cell growth inhibition (crystal violet staining method); format: cell-based; conditions: Homo sapiens; breast cancer cells SK-BR-3, 72 hours culture with test substance
Method: Cell growth was assayed by a crystal violet staining method. SK-BR-3 cells (HTB-30) purchased from American Type Culture Collection were inoculated at a concentration of 5,000 cells/well to a 96-well plate (#353075, BD Biosciences). After culture at 37° C. for 24 hours in a 5% CO2 incubator, each test substance was added thereto, and the cells were further cultured for 72 hours. A 25% glutaraldehyde solution (#17025-25, Nacalai Tesque, Inc.) was added thereto at a concentration of 20 μL/well per 200 μL of the medium, and the plate was incubated at room temperature for 20 minutes to fix the cells. The plate was washed with water and dried. Then, a solution containing 0.05% crystal violet (#038-17792, Wako Pure Chemical Industries, Ltd.) and 20% methanol was added thereto at a concentration of 100 μL/well, and the plate was incubated at room temperature for 20 minutes to stain the cells. The plate was washed with water and dried. A mixed solution of 0.05 M NaH2PO4 and ethanol (mixed in equal amounts) was added thereto at a concentration of 100 μL/well. Absorbance was measured at 540 nm using a microplate reader (MTP-450, Corona Electric Co., Ltd.) and used as an index for the number of cells per well. Percent inhibition (%) of cell growth by each compound of the present invention was determined according to the formula shown below with the absorbance of no drug addition group as a control. […] Percent inhibition (%)=(C−T)/C×100, wherein T: Absorbance of well with test substance addition C: Absorbance of well without test substance addition.

[1] = target: human HSP90 alpha protein (N-terminal, amino acids 2 to 236) (Homo sapiens (Human), UniProt P07900); test: Determination of HSP90-binding activity (AlphaScreen competitive assay with biotinylated geldanamycin); conditions: inhibition of binding of biotinylated geldanamycin to purified HSP90 N-terminal protein, read-out: HSP-binding activity IC50
Method: First, a purified HSP90 solution was prepared as follows: a human HSP90 alpha gene (NCBI Reference Sequence accession no. NM-005348) region corresponding to amino acids 2 to 236 of human HSP90 alpha protein (NCBI Reference Sequence accession no. NP-005339; full length: 732 amino acids) was inserted to pET-19b (Novagen; Merck KGaA) to construct a plasmid pET-HS[…] for expression of the HSP90 N-terminal protein having a His-tag at the N-terminus. E. coli (BL21(DE3), Stratagene Corp.) was transformed with pET-HS[…] and then cultured at 37° C. for 4 hours in the presence of 0.5 mM isopropyl-beta-D-thiogalactopyranoside (Sigma-Aldrich Corp.). The collected E. coli was suspended in a lysis buffer (50 mM Tris-HCl (pH 7.5), 200 mM NaCl) and sonicated. The sonicated cell solution was centrifuged (40,000×g, 20 minutes), and the supernatant was used as a crude extract. This crude extract was fractionated using Ni Sepharose High Performance (GE Healthcare Japan Corp.) chromatography and HiLoad 26/60 Superdex 75 pg (GE Healthcare Japan Corp.). Then, a fraction of HSP90 protein concentrates was prepared in a solution containing 50 mM Tris-HCl (pH 7.5) and 20% glycerol as a purified HSP90 solution. The purified HSP90 solution was divided and stored at -80° C. until use. HSP90-binding activity was determined by an AlphaScreen competitive assay system. […] After reaction at room temperature for 2 hours, biotinylated geldanamycin was added thereto at a concentration of 40 nM/well and further reacted for 1 hour. Detection mix (20 mM HEPES-KOH (pH 7.5), 0.5% BSA, 0.04 mg/mL Nickel Chelate Acceptor beads, 0.04 mg/mL Streptavidin-coated Donor beads) (#6760619C, PerkinElmer, Inc.) was added to each well in an amount equal to the amount of the reaction solution and reacted at room temperature for 1 hour in the dark. Then, fluorescence intensity was measured using Multilabel Plate Reader EnVision (PerkinElmer, Inc.). Percent inhibition (%) of the binding of biotinylated geldanamycin by each compound of the present invention was determined according to the formula shown below with the fluorescence signal of no test substance addition group as a control. […] Percent inhibition (%)=(C-T)/C×100, wherein T: Signal of well with test substance addition C: Signal of well without test substance addition.

SMILES | pIC50 (SK-BR-3 cells) | pIC50 [1]
Cn1cc(-c2cn(-c3cccc4c(-c5ccc(C(N)=O)c(NCCc6ccccn6)c5)nccc34)cn2)cn1 [Example 60, 4-(5-(4-(1-Methyl-1H-pyrazol-4-yl)-1H-imidazol-1-yl)isoquinolin-1-yl)-2-(2-(pyridin-2-yl)ethylamino)benzamide] | 6.82 | 6.77
CC(C)Nc1cc(-c2nccc3c(-n4cnc(-c5cnn(C)c5)c4)cccc23)ccc1C(N)=O [Example 61, 2-(Isopropylamino)-4-(5-(4-(1-methyl-1H-pyrazol-4-yl)-1H-imidazol-1-yl)isoquinolin-1-yl)benzamide] | 7.15 | 6.72
COCCNc1cc(-c2nccc3c(-n4cnc(-c5cnn(C)c5)c4)cccc23)ccc1C(N)=O [Example 62, 2-(2-Methoxyethylamino)-4-(5-(4-(1-methyl-1H-pyrazol-4-yl)-1H-imidazol-1-yl)isoquinolin-1-yl)benzamide] | 6.59 | 6.68
CC(C)Nc1cc(-c2cc(C(F)(F)F)nc3c(-n4cnc(-c5cnn(C)c5)c4)cccc23)ccc1C(N)=O [Example 64] | 8.00 | 6.77
CCNc1cc(-c2nc(C)cc3c(-n4cnc(-c5cnn(C)c5)c4)cccc23)ccc1C(N)=O [Example 66, 2-(Ethylamino)-4-(3-methyl-5-(4-(1-methyl-1H-pyrazol-4-yl)-1H-imidazol-1-yl)isoquinolin-1-yl)benzamide] | 7.70 | 6.82
Cc1cc2c(-n3cnc(-c4cnn(C)c4)c3)cccc2c(-c2ccc(C(N)=O)c(NC(C)C)c2)n1 [Example 67, 2-(Isopropylamino)-4-(3-methyl-5-(4-(1-methyl-1H-pyrazol-4-yl)-1H-imidazol-1-yl)isoquinolin-1-yl)benzamide] | 7.70 | 6.68
Cc1cc2c(-n3cnc(-c4cnn(C)c4)c3)cccc2c(-c2ccc(C(N)=O)c(NCC3CC3)c2)n1 [Example 68, 2-(Cyclopropylmethylamino)-4-(3-methyl-5-(4-(1-methyl-1H-pyrazol-4-yl)-1H-imidazol-1-yl)isoquinolin-1-yl)benzamide] | 8.00 | 6.72
Cn1cc(-c2cn(-c3cccc4c(-c5ccc(C(N)=O)c(N)c5)cc(C(F)(F)F)nc34)cn2)cn1 [Example 69, 2-Amino-4-(8-(4-(1-methyl-1H-pyrazol-4-yl)-1H-imidazol-1-yl)-2-(trifluoromethyl)quinolin-4-yl)benzamide] | 7.70 | 6.82
Cn1cc(-c2cn(-c3cccc4c(-c5ccc(C(N)=O)c(F)c5)cc(C(F)(F)F)nc34)cn2)cn1 [Example 70, 2-Fluoro-4-(8-(4-(1-methyl-1H-pyrazol-4-yl)-1H-imidazol-1-yl)-2-(trifluoromethyl)quinolin-4-yl)benzamide] | 7.22 | 6.68
Cc1cc2c(-n3cnc(-c4cnn(C)c4)c3)cccc2c(-c2ccc(C(N)=O)c(N)c2)n1 [Example 71, 2-Amino-4-(3-methyl-5-(4-(1-methyl-1H-pyrazol-4-yl)-1H-imidazol-1-yl)isoquinolin-1-yl)benzamide] | 6.68 | 6.77
CCNc1cc(-c2nccc3c(-n4cnc(-c5cnn(C)c5)c4)ccnc23)ccc1C(N)=O [Example 72, 2-Ethylamino-4-(4-(4-(1-methyl-1H-pyrazol-4-yl)-1H-imidazol-1-yl)1,7-naphthyridin-8-yl)benzamide] | 5.76 | 6.13
Cn1cc(-c2cn(-c3cccc4c(-c5ccc(C(N)=O)cc5N)cc(C(F)(F)F)nc34)cn2)cn1 [Example 73, 3-Amino-4-(8-(4-(1-methyl-1H-pyrazol-4-yl)-1H-imidazol-1-yl)-2-(trifluoromethyl)quinolin-4-yl)benzamide] | 7.15 | 6.72
Cc1cc2c(-n3cnc(-c4cnn(C)c4)c3)cccc2c(-c2ccc(C(N)=O)cc2N)n1 [Example 74, 3-Amino-4-(3-methyl-5-(4-(1-methyl-1H-pyrazol-4-yl)-1H-imidazol-1-yl)isoquinolin-1-yl)benzamide] | 5.95 | 6.36
